The test system of one test is DU4475. Kind of test: In vitro cell viability assay (CellTiter-Glo, ATP levels), triple negative breast cancer cells. The settings on record: Homo sapiens, DU-4475, 168 h, 7-day incubation, CellTiter-Glo, average values; read-out: DU4475 IC50. The test is classed as cell-based. How it is done:
(§1) In Vitro Cell Viability Assay
(§2) The present disclosure provides a method for inhibiting cell viability, as measured by ATP levels. The method for inhibiting cell viability is drawn to contacting various cancer cells with the compounds described herein at various concentrations. The cancer cell lines were maintained in culture conditions at 37° C. in an atmosphere of 5% CO2 in air. The cells growing in an exponential growth phase were harvested and counted for plating. Compounds were incubated in two cancer cell types representing multiple myeloma (MOLP-8) and triple negative breast cancer (DU4475). Cells were plated at an optimized cell numbers per well in 96-well plates and allowed to attach to the plates overnight at approximately 80% confluency.
(§3) After addition of compounds, plates were incubated for 7-day. At the end of incubation period on day 8, media was removed and replaced with a solution of CellTiter-Glo™ reagent (Promega®) according to protocol. Luminescence was read using an EnVision® multi-label plate reader (Perkin-Elmer®), and signal intensity was calculated relative to positive and negative control wells. Cisplatin was included as the positive control. A dose-response calculation was performed in a non-linear regression fit and by using the Hill equation to calculate a concentration-response curve and 50% inhibitory concentration (IC50) values for each compound.
(§4) The average IC50 values of compounds 1-15 in multiple myeloma (MOLP-8) and triple negative breast cancer (DU4475) cells are shown in Table 1.
(In general: Cellular ATP, detected with luciferase, serves as a proxy for viable cell number.)

The subject of test [1] is HCT116 (colorectal cancer) cells. The experiment in a line: Resazurin-based cell viability assay using colorectal cancer cells. The settings on record: Homo sapiens, HCT-116, 72 hr incubation. As for the experimental part:
Determination of Potency of Compounds in Cell Viability Assay Using Colorectal Cancer Cells
The blue dye resazurin-based assay was performed to determine cell viability and used according to manufacture protocol (Sigma®). HCT116 (colorectal cancer) cells were seeded in the DMEM medium (10% FBS serum). Approximately 1,500 cells were plated per well in 96 well plates. Cells were allowed to grow at 37° C. for 24 hr in 5% CO2 environment in a humidified incubator. Serially diluted compounds (100 μL) were added to the culture plate after 24 hr. After addition of compounds, plates were incubated for 72 hr. Experiment was terminated at the designated incubation time by replacing the medium with 100 μL of 1 mM of resazurin (Sigma®) prepared in culture medium (DMEM) and were further incubated in culture conditions for 4-6 hours. Fluorescence was recorded using a multimodal plate reader (Biotek Synergy Neo®) at an excitation wavelength of 535 nm and emission wavelength of 590 nm to obtain relative fluorescence units. Data analysis was done by subtracting the background fluorescence (medium blank) value from each reading and then normalizing with the vehicle control (DMSO treated cells) to obtain percent survival/proliferation. IC50 was calculated from percent survival values using GraphPad Prism® (see Table 1).
In general terms: Alamar Blue is a resazurin reagent that responds to reducing activity.

In a further test the test system is MOLP-8. Kind of test: In vitro cell viability assay (CellTiter-Glo, ATP levels), multiple myeloma cells. It counts as cell-based. As to conditions: Homo sapiens, MOLP-8, 168 h, 7-day incubation, CellTiter-Glo, average values; read-out: MOLP-8 IC50. How it is done: as §1, §2, §3, §4

Among the data in patent US11485725B2, “Derivatives of piperlongumine and uses thereof” (Auransa Inc., priority 2017, dated 2022) are IC50 values, retold here.

As a reminder, the IC50 is the concentration needed to halve the response being measured.

As to `O=C(Nc1ccc(F)cc1)N1CCC(/C=C/S(=O)(=O)N2CCC=CC2=O)CC1` [Compound 82, (E)-N-(4-fluorophenyl)-4-(2-((6-oxo-3,6-dihydropyridin-1(2H)-yl)sulfonyl)vinyl)piperidine-1-carboxamide], the IC50 worked out at 800 nM in the test with DU4475, 2250 nM in test [1] and 360 nM in the test with MOLP-8.

For `Cc1n[nH]c(C)c1/C=C/C(=O)N1CCC=CC1=O` [Compound 81, (E)-1-(3-(3,5-dimethyl-1H-pyrazol-4-yl)acryloyl)-5,6-dihydropyridin-2(1H)-one], the IC50 was found to be 2700 nM in the test on DU4475, 5100 nM in test [1] and 1490 nM in the test on MOLP-8.

In the case of `O=C1C=CCCN1C(=O)/C=C/c1ncccn1` [Compound 7, (E)-1-(3-(pyrimidin-2-yl)acryloyl)-5,6-dihydropyridin-2(1H)-one], the IC50 was 490 nM with DU4475, 1500 nM in test [1] and 570 nM in the test with MOLP-8.

Consider `Cc1noc(/C=C/C(=O)N2CCC=CC2=O)n1` [Compound 16, (E)-1-(3-(3-methyl-1,2,4-oxadiazol-5-yl)acryloyl)-5,6-dihydropyridin-2(1H)-one], for which the IC50 with DU4475 was determined as 750 nM; in test [1], 960 nM; in the test with MOLP-8, 660 nM.

Regarding `O=C(/C=C/c1ncccn1)N1CCC=C(Cl)C1=O` [Compound 35, (E)-3-chloro-1-(3-(pyrimidin-2-yl)acryloyl)-5,6-dihydropyridin-2(1H)-one], the half-maximal inhibitory concentration (IC50) was determined as 210 nM in the test with DU4475, 380 nM in test [1] and 80 nM in the test with MOLP-8.

Turning to `O=C1C=CCCN1C(=O)C=C(c1ccccc1)c1ccccc1` [Compound 29, 1-(3,3-diphenylacryloyl)-5,6-dihydropyridin-2(1H)-one], the results for the IC50 (in the test with DU4475; in test [1]; in the test with MOLP-8) were 1720 nM, 6400 nM and 2700 nM, respectively.

With `O=C1C=CCCCN1C(=O)/C=C/c1cncc2ccccc12` [Compound 12, (E)-1-(3-(isoquinolin-4-yl)acryloyl)-1,5,6,7-tetrahydro-2H-azepin-2-one], the figures for the IC50 (in the test with DU4475; in test [1]; in the test on MOLP-8) were 600 nM, 960 nM and 890 nM, respectively.

For `C/C(=C\C1CCN(C(=O)OC(C)(C)C)CC1)C(=O)N1CCC=CC1=O` [Compound 72, tert-butyl (E)-4-(2-methyl-3-oxo-3-(6-oxo-3,6-dihydropyridin-1(2H)-yl)prop-1-en-1-yl)piperidine-1-carboxylate], the IC50 in the test with DU4475 came out at 4430 nM; in test [1], 10300 nM; in the test with MOLP-8, 2670 nM.

As for `O=C1C=CCCN1C(=O)/C=C/c1cnn(CC(F)(F)F)c1` [Compound 90, 1 11-{(2E)-3-[1-(2,2,2-trifluoroethyl)-1H-pyrazol-4-yl]prop-2-enoyl}-5,6-dihydropyridin-2(1H)-one], the 50% inhibitory concentration (IC50) in the test with DU4475 was found to be 1470 nM; in test [1], 7070 nM; with MOLP-8 it was 440 nM.

Regarding `O=C(Nc1ccc(F)cc1)N1CCC(/C=C/C(=O)N2CCC=CC2=O)CC1` [Compound 58, N-(4-fluorophenyl)-4-[(1E)-3-oxo-3-(6-oxo-3,6-dihydropyridin-1(2H)-yl)prop-1-en-1-yl]piperidine-1-carboxamide], the values for the IC50 (with DU4475; in test [1]; with MOLP-8) were 440 nM, 1100 nM and 380 nM, respectively.

In the case of `O=C1C=CCCN1C(=O)/C=C/c1cccnn1` [Compound 27, (E)-1-(3-(pyridazin-3-yl)acryloyl)-5,6-dihydropyridin-2(1H)-one], the results for the IC50 (in the test with DU4475; in test [1]; in the test on MOLP-8) were 950 nM, 1900 nM and 760 nM, respectively.

Take `CC1(C)C=CC(=O)N(C(=O)/C=C/C2CCN(C(=O)Nc3ccc(F)cc3)CC2)C1` [Compound 70, (E)-4-(3-(3,3-dimethyl-6-oxo-3,6-dihydropyridin-1(2H)-yl)-3-oxoprop-1-en-1-yl)-N-(4-fluorophenyl)piperidine-1-carboxamide]: the concentration for half-maximal inhibition (IC50) in the test with DU4475 came to 1750 nM; in test [1], 7060 nM; in the test on MOLP-8 it was 1350 nM.

As to `C/C(=C/C1CCN(CC2CC2)CC1)C(=O)N1CCC=CC1=O` [Compound 79, (Z)-1-(3-(1-(cyclopropylmethyl)piperidin-4-yl)-2-methylacryloyl)-5,6-dihydropyridin-2(1H)-one], the IC50 in the test on DU4475 is 1910 nM; in test [1], 2690 nM; in the test with MOLP-8, 1030 nM.

In the case of `CC1(/C=C/C(=O)N2CCC=CC2=O)CCCCC1` [Compound 22, (E)-1-(3-(1-methylcyclohexyl)acryloyl)-5,6-dihydropyridin-2(1H)-one], the IC50 is 1840 nM in the test with DU4475, 3850 nM in test [1] and 2210 nM in the test on MOLP-8.

As to `O=C1C=CCCN1C(=O)/C=C/c1ncc2c(n1)OCCO2` [Compound 80, (E)-1-(3-(6,7-dihydro-[1,4]dioxino[2,3-d]pyrimidin-2-yl)acryloyl)-5,6-dihydropyridin-2(1H)-one], the IC50 came out at 1800 nM in the test with DU4475, 3210 nM in test [1] and 1150 nM in the test with MOLP-8.

In the case of `O=C1C=CCCN1C(=O)/C=C/c1cn[nH]c1` [Compound 89, (E)-1-(3-(1H-pyrazol-4-yl)acryloyl)-5,6-dihydropyridin-2(1H)-one], the IC50 with DU4475 turned out to be 8410 nM; in test [1], 2700 nM; with MOLP-8, 3580 nM.

Take `COc1cnc(/C=C/C(=O)N2CCC=CC2=O)nc1` [Compound 63, (E)-1-(3-(5-methoxypyrimidin-2-yl)acryloyl)-5,6-dihydropyridin-2(1H)-one]: the results for the IC50 (with DU4475; in test [1]; in the test on MOLP-8) were 480 nM, 2110 nM and 290 nM, respectively.

`COc1cc(/C=C(\C)C(=O)N2CCC=CC2=O)cc2c1OCCO2` [Compound 55, 1-[(2E)-3-(8-methoxy-2,3-dihydro-1,4-benzodioxin-6-yl)-2-methylprop-2-enoyl]-5,6-dihydropyridin-2(1H)-one]: the values for the IC50 (in the test with DU4475; in test [1]; with MOLP-8) were 830 nM, 1960 nM and 580 nM, respectively.

Regarding `O=C1C=CCCN1C(=O)/C=C/c1ccc2c(n1)OCCO2` [Compound 21, (E)-1-(3-(2,3-dihydro-[1,4]dioxino[2,3-b]pyridin-6-yl)acryloyl)-5,6-dihydropyridin-2(1H)-one], the IC50 is 530 nM with DU4475, 3160 nM in test [1] and 680 nM with MOLP-8.

In the case of `O=C1C=CCCCN1C(=O)/C=C/c1ccc2c(n1)OCCO2` [Compound 31, (E)-1-(3-(2,3-dihydro-[1,4]dioxino[2,3-b]pyridin-6-yl)acryloyl)-1,5,6,7-tetrahydroazepin-2-one], the IC50 was 560 nM in the test with DU4475, 1550 nM in test [1] and 270 nM with MOLP-8.

Consider `O=C1C=CCCCN1C(=O)/C=C/c1ccncc1` [Compound 5, (E)-1-(3-(pyridin-4-yl)acryloyl)-1,5,6,7-tetrahydro-2H-azepin-2-one], for which the IC50 in the test on DU4475 was determined as 570 nM; in test [1] it was 2000 nM; in the test with MOLP-8 it was 490 nM.

On to `O=C1C=CCCCN1C(=O)/C=C/c1cnccn1` [Compound 6, (E)-1-(3-(pyrazin-2-yl)acryloyl)-1,5,6,7-tetrahydro-2H-azepin-2-one], for which the IC50 was 560 nM in the test on DU4475, 2400 nM in test [1] and 440 nM with MOLP-8.

Turning to `O=C1C=CCCN1C(=O)/C=C/C1CCOCC1` [Compound 34, 1-[(2E)-3-(tetrahydro-2H-pyran-4-yl)prop-2-enoyl]-5,6-dihydropyridin-2(1H)-one], the figures for the IC50 (with DU4475; in test [1]; in the test with MOLP-8) were 1430 nM, 3800 nM and 510 nM, respectively.

`O=C1C=CCCN1C(=O)/C=C/C1CCNCC1` [Compound 20, (E)-1-(3-(piperidin-4-yl)acryloyl)-5,6-dihydropyridin-2(1H)-one]: the IC50 is 1320 nM with DU4475, 2130 nM in test [1] and 690 nM with MOLP-8.

With `O=C1C=CCCCN1C(=O)/C=C/c1cnc2c(c1)OCCO2` [Compound 26, (E)-1-(3-(2,3-dihydro-[1,4]dioxino[2,3-b]pyridin-7-yl)acryloyl)-6,7-dihydro-1H-azepin-2(5H)-one], the IC50 is 630 nM in the test with DU4475, 3420 nM in test [1] and 170 nM with MOLP-8.

For the compound `NC(=O)N1CCC(/C=C/C(=O)N2CCC=CC2=O)CC1` [Compound 68, (E)-4-(3-oxo-3-(6-oxo-3,6-dihydropyridin-1(2H)-yl)prop-1-en-1-yl)piperidine-1-carboxamide], the results for the IC50 (in the test with DU4475; in test [1]; in the test on MOLP-8) were 1550 nM, 7380 nM and 670 nM, respectively.
